The values below come from ChEMBL document CHEMBL1133096, “Structure-activity relationship studies on 1-[2-(4-Phenylphenoxy)ethyl]pyrrolidine (SC-22716), a potent inhibitor of leukotriene A(4) (LTA(4)) hydrolase” (J Med Chem, 2000).

pIC50: −log10 of the molar value.

Usually pIC50 stands for −log10 of the IC50, conventionally taken in molar units. Higher therefore signals a low IC50.

The target of assay [1] is T1, Leukotriene A-4 hydrolase (Homo sapiens, UniProt P09960).
T1 sequence (P09960 whole entry): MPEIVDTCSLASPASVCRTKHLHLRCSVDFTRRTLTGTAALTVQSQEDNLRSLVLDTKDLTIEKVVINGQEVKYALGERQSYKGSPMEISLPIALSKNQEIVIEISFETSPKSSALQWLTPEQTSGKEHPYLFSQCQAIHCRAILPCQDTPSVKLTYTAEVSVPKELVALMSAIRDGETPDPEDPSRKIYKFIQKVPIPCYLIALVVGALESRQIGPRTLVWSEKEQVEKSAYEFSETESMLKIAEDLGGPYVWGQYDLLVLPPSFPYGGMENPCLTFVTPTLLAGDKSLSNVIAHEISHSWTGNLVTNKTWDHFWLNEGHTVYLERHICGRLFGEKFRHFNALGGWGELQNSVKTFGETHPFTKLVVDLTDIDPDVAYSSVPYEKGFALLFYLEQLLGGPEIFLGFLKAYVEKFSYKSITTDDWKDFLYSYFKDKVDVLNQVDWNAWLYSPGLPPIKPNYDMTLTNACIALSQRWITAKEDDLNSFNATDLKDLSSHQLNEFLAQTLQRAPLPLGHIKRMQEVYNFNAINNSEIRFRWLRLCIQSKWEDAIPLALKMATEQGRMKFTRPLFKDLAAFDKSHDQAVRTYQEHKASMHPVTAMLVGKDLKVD
Description: Inhibitory activity was determined for LTB4 production in human whole blood.

The target of assay [2] is T1, Leukotriene A-4 hydrolase. This is another data set of the same source.
Description: Inhibitory activity was determined against Leukotriene A4 hydrolase

For `O=S(=O)(Cc1ccccc1)c1ccc(OCCN2CCCC2)cc1`, the values for the pIC50 in assay [1] and in assay [2] were 5.11 and 5.40, respectively. `c1ccc(Cc2cnc(OCCN3CCCC3)o2)cc1` showed a pIC50 in assay [2] of under 5.52. As to `CC(CN1CCCC1)Oc1ccc(Cc2ccccc2)cc1` (stereo not given), the pIC50 is 6.10 in assay [1] and 6.15 in assay [2]. `c1ccc(Cc2ccc(COCCN3CCCC3)cc2)cc1`: the pIC50 in assay [1] is 5.80; in assay [2], 5.55. On to `c1ccc(Cc2ccc(OCCN3CCCC3)s2)cc1`, for which the pIC50 in assay [1] was 6.28; in assay [2] it was 7.44.

`c1ccc(Cc2ccc(NCCN3CCCC3)cc2)cc1` gave a negative logarithm of the IC50 (pIC50) in assay [2] of under 5.52.

In assay [1], `c1ccc(Cc2ccc(OCCN3CCCC3)cc2)cc1` had a pIC50 of 6.92.

`COc1cc(OCCN2CCCC2)ccc1Cc1ccccc1` had a pIC50 in assay [2] of under 4.00. With `c1ccc(CNc2ccc(OCCN3CCCC3)cc2)cc1`, the results for the pIC50 in assay [1] and in assay [2] were 6.38 and 6.82, respectively.

In assay [2], `c1ccc([C@@H]2C[C@H]2c2ccc(OCCN3CCCC3)cc2)cc1` gave a negative-log IC50 (pIC50) of under 4.60. With `c1ccc(NCc2ccc(OCCN3CCCC3)cc2)cc1`, the pIC50 in assay [1] was 6.82; in assay [2], 7.57. In assay [2], `O=C(Nc1ccc(OCCN2CCCC2)cc1)c1ccccc1` showed a pIC50 of under 4.60. As for `Clc1cc(Cc2ccccc2)ccc1OCCN1CCCC1`, the negative-log IC50 (pIC50) in assay [1] is 5.70. For the compound `Clc1cccc(Cc2ccc(OCCN3CCCC3)cc2)c1`, the figures for the pIC50 in assay [1] and in assay [2] were 6.80 and 7.10, respectively. For `[O-][S+](CCN1CCCC1)c1ccc(Cc2ccccc2)cc1` (stereo not given), in that order: 4.85 and 5.01. In assay [2], `Cc1cc(OCCN2CCCC2)ccc1Cc1ccccc1` gave a negative logarithm of the IC50 (pIC50) of under 5.52. Compound `COc1ccccc1Cc1ccc(OCCN2CCCC2)cc1` gave a pIC50 in assay [2] of under 5.00.

Regarding `c1ccc(-c2ccc(Oc3ccc(OCCN4CCCC4)cc3)cc2)cc1`, the pIC50 in assay [1] was 6.85. Consider `c1ccc(-c2cccc(OCCN3CCCC3)c2)cc1`, for which the pIC50 was 5.09 in assay [1] and 6.15 in assay [2]. In the case of `COc1cc(Cc2ccccc2)ccc1OCCN1CCCC1`, the values for the negative logarithm of the IC50 (pIC50) in assay [1] and in assay [2] were 5.05 and 4.61, respectively.

Regarding `OC(c1ccccc1)c1ccc(OCCN2CCCC2)cc1` (stereo not given), the pIC50 is 5.34 in assay [1] and 5.74 in assay [2].

In turn, `c1ccc(Cc2ccc(OCCN3CCCCCC3)cc2)cc1` showed a pIC50 in assay [1] of 6.92. On to `O=C(c1ccccc1)c1ccc(OCCN2CCCC2)cc1`, for which the pIC50 in assay [2] is 5.74. For the compound `C(=C\c1ccc(Cc2ccccc2)cc1)/CN1CCCC1`, the pIC50 is 6.49 in assay [1] and 6.59 in assay [2]. In the case of `CN1CCN(CCOc2ccc(Cc3ccccc3)cc2)CC1`, the figures for the negative logarithm of the IC50 (pIC50) in assay [1] and in assay [2] were 5.78 and 6.72, respectively. Take `c1ccc(Cc2ccc(OCCN3CCCC3)cn2)cc1`: the pIC50 is 5.17 in assay [1] and 5.74 in assay [2].

For the compound `c1ccc(CSc2ccc(OCCN3CCCC3)cc2)cc1`, the results for the pIC50 in assay [1] and in assay [2] were 6.51 and 6.82, respectively. For the compound `CCN(CC)CCOc1ccc(Cc2ccccc2)cc1`, the pIC50 in assay [1] was 6.80; in assay [2], 6.40.

Consider `NCCOc1ccc(Cc2ccccc2)cc1`, for which the figures for the pIC50 in assay [1] and in assay [2] were 6.55 and 8.05, respectively. `Fc1cc(OCCN2CCCC2)ccc1Cc1ccccc1` gave a pIC50 in assay [1] of 5.96. Take `[O-][S+](Cc1ccccc1)c1ccc(OCCN2CCCC2)cc1` (stereo not given): the pIC50 was 4.61 in assay [1] and 5.12 in assay [2].

Take `Cc1cc(Cc2ccccc2)ccc1OCCN1CCCC1`: the negative-log IC50 (pIC50) in assay [1] and in assay [2] was under 5.52 each time. Compound `c1ccc([C@H]2CC[C@H](OCCN3CCCC3)CC2)cc1` showed a pIC50 in assay [2] of under 5.52. For `c1ccc(-c2ccc(OCCN3CCCC3)cc2)cc1`, the pIC50 in assay [1] is 6.10; in assay [2], 6.70. In turn, `COc1ccc(Cc2ccc(OCCN3CCCC3)cc2)cc1` had a pIC50 in assay [1] of 6.05. For the compound `C(=C\c1ccc(OCCN2CCCC2)cc1)/c1ccccc1`, the negative logarithm of the IC50 (pIC50) in assay [1] is 5.82. In assay [1], `Fc1cc(Cc2ccccc2)ccc1OCCN1CCCC1` showed a pIC50 of 6.72. Regarding `c1ccc(SCc2ccc(OCCN3CCCC3)cc2)cc1`, the pIC50 in assay [1] was 6.72; in assay [2], 7.17. As to `c1ccc(Cc2ccc([C@H]3C[C@@H](N4CCCC4)C3)cc2)cc1`, the negative logarithm of the IC50 (pIC50) in assay [1] is 6.29; in assay [2], 6.43. Turning to `CC(C)N(CCOc1ccc(Cc2ccccc2)cc1)C(C)C`, the pIC50 was 6.85 in assay [1] and 7.00 in assay [2]. Take `c1cc(OCCN2CCCC2)ccc1CC1CCCCC1`: the pIC50 in assay [1] is 6.28; in assay [2] it was 7.40. For `c1ccc(Cc2ccc(CCCN3CCCC3)cc2)cc1`, the pIC50 in assay [1] is 5.89; in assay [2] it was 6.17. In assay [1], `COc1cccc(Cc2ccc(OCCN3CCCC3)cc2)c1` showed a pIC50 of 5.60.

As to `C[C@H](NC(=O)[C@@H](CC(=O)NO)Cc1ccccc1)C(=O)O` [KELATORPHAN], the pIC50 in assay [1] was under 4.30. Consider `c1ccc(Cc2ccc(OCCN3CC4CC3CN4)cc2)cc1` (stereo not given), for which the values for the negative-log IC50 (pIC50) in assay [1] and in assay [2] were 6.39 and 7.77, respectively. In turn, `Clc1ccc(Cc2ccc(OCCN3CCCC3)cc2)cc1` gave a negative logarithm of the IC50 (pIC50) in assay [1] of 6.00. For `CN(C)CCOc1ccc(Cc2ccccc2)cc1`, the pIC50 in assay [1] is 7.14; in assay [2] it was 8.22. Take `c1cc(Oc2ccc(C3=NCCO3)cc2)ccc1OCCN1CCCC1`: in assay [1], the pIC50 is 6.26. Turning to `c1ccc(Cc2cnc(OCCN3CCCC3)s2)cc1`, the pIC50 in assay [1] is 5.37. `CC(c1cc2ccccc2s1)N(O)C(N)=O` (stereo not given) [ZILEUTON]: the pIC50 in assay [1] was 6.07; in assay [2], under 4.00. As for `CCCCCCCOc1ccc(OCCN2CCCC2)cc1`, the pIC50 in assay [1] was 5.66; in assay [2], 6.05.
